Results from patent publication US20030166687A1, “ALPHA-HYDROXY,-AMINO AND -FLUORO DERIVATIVES OF BETA-SULPHONYL HYDROXAMIC ACIDS AS MATRIX METALLOPROTEINASES INHIBITORS” (priority 2000, published 2003).
pKi: −log10 of the molar value.

Target: gelatinase
Assay: MMP particle concentration fluorescence assay, gelatinase
Format: biochemical
Details: in vitro; 15 min preincubation, 1-3 hours with substrate at room temperature, pH 7.5
Description: Inhibitory activity is evaluated in one or more of the MMP enzymes (stromelysin, gelatinase, and collagenase) in vitro using particle concentration fluorescence assay. An inhibitor binds to MMP enzymes which prevents the degradation of a substrate by stromelysin, gelatinase, or collagenase. The substrate has attached to it a fluorescein and a biotin moiety. The intact substrate then binds to an avidin-coated particle via the biotin moiety. Once the particle is washed and dried, a fluorescent signal is generated since the fluorescent group is attached to the particle. Without an inhibitor present, the substrate is degraded by MMP enzymes and the fluorescein group is removed, therefore, no fluorescent signal can be detected. Testing compounds are dissolved in DMSO to the desired concentration, then the solutions are diluted to 1:5 with MMP buffer (50 mM Tris-HCl, pH 7.5; 150 mM NaCl; 0.02% NaN3). Serial two-fold dilutions of each compound are prepared. A concentrated, activated enzyme solution is transferred into each plate of the testing compounds, and the mixture is incubated at room temperature for 15 minutes. Thawed MMP substrate is then added into all plates, and the plates are incubated in the dark for 1-3 hours at room temperature. At this point, the substrate mixture is mixed with 0.1% avidin-coated polystyrene particles. After 15 minutes, the fluorescence values are measured following filtration and washing of the beads. Ki values are then calculated.

Row | pKi | Compound
1 | 7.15 | COc1ccc(S(=O)(=O)CC(O)(CNC(=O)C2CCCC2)C(=O)NO)cc1 (stereo not drawn) [Example 6, N-hydroxy-2-hydroxy-2-[(4-methoxybenzenesulfonyl)methyl]-3-[N-(cyclopentylcarbonyl)amino]-propionamide]
2 | 9.47 | COc1ccc(S(=O)(=O)CC(O)(CS(=O)(=O)c2ccc(-c3ccccc3)cc2)C(=O)NO)cc1 (single isomer, unassigned) [1, Enantiomer B]
3 | 8.12 | COc1ccc(S(=O)(=O)CC(O)(CS(=O)(=O)c2ccc(OC)cc2)C(=O)NO)cc1 [Example 4, N-hydroxy-2-hydroxy-2-[(4-methoxybenzenesulfonyl)methyl]-3-(4-methoxybenzenesulfonyl)-propionamide]
4 | 7.89 | CCCCc1ccc(S(=O)(=O)CC(O)(CS(=O)(=O)c2ccc(OC)cc2)C(=O)NO)cc1 (stereo not drawn) [Example 3, N-hydroxy-2-hydroxy-2-[(4-methoxybenzenesulfonyl)methyl]-3-(4-n-butylbenzenesulfonyl)-propionamide]
5 | 8.07 | COc1ccc(S(=O)(=O)CC(O)(CS(=O)(=O)c2ccc(-c3ccccc3)cc2)C(=O)NO)cc1 (single isomer, unassigned) [1, Enantiomer A]
6 | 8.72 | COc1ccc(S(=O)(=O)CC(O)(CS(=O)(=O)c2ccc(-c3ccccc3)cc2)C(=O)NO)cc1 (racemic) [Example 1, N-hydroxy-2-hydroxy-2-[(4-methoxybenzenesulfonyl)methyl]-3-(4-phenylbenzenesulfonyl)-propionamide]
7 | 7.64 | COc1ccc(S(=O)(=O)CC(O)(CNC(=O)c2ccccc2)C(=O)NO)cc1 (stereo not drawn) [Example 5, N-hydroxy-2-hydroxy-2-[(4-methoxybenzenesulfonyl)methyl]-3-(N-benzenecarbonylamino)-propionamide]
8 | 7.77 | COc1ccc(C(=O)NCC(O)(CS(=O)(=O)c2ccc(OC)cc2)C(=O)NO)cc1 (stereo not drawn) [Example 7, N-hydroxy-2-hydroxy-2-[(4-methoxybenzenesulfonyl)methyl]-3-(N-(4-methoxybenzenecarbonyl)amino)-propionamide]
9 | 7.51 | COc1ccc(S(=O)(=O)CC(O)(CS(=O)(=O)c2ccc(F)cc2)C(=O)NO)cc1 (stereo not drawn) [Example 2, N-hydroxy-2-hydroxy-2-[(4-methoxybenzenesulfonyl)methyl]-3-(4-fluorobenzenesulfonyl)-propionamide]
